In paper PMC5570288, “Hot-spot identification on a broad class of proteins and RNA suggest unifying principles of molecular recognition” (PLoS ONE, 2017):

Molecular target: T1, RecA (Escherichia coli, UniProt P0A7G6)
T1 construct: assay 'as previously described'; homo-oligomer
Experiment: coupled ATPase assay, ADP to H2O2, amplex red / resorufin fluorescence
Type: biochemical

T1 sequence (P0A7G6 2-353): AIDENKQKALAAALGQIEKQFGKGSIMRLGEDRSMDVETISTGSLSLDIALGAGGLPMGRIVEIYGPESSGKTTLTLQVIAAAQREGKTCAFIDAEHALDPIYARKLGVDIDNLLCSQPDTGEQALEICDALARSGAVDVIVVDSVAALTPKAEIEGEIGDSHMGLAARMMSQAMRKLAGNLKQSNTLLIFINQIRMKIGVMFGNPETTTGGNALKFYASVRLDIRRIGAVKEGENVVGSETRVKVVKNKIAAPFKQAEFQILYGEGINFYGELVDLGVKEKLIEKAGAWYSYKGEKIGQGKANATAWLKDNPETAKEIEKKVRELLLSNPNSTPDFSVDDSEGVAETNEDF

Work on `NCCc1cc(O)c(O)cc1O` [6-hydroxydopamine] yielded an IC50 of 23 µM.
